Tests used:
[1] = test system: human melanocyte (normal cell line) (HFB-4); assay: SRB cytotoxicity assay, normal cell line; type: cell-based; settings: 48 h incubation, triplicate, ±SD
Description: (§1) The cytotoxic activity of the isolated compounds was measured in vitro against a human liver cancer cell line (HEPG2), a human breast cancer cell line (MCF-7) and a human melanocyte (normal cell line) (HFB-4) in comparison to Doxorubicin, using sulforhodamine B (SRB) assay. Human tumor cell lines (MCF-7, HepG2) used in this study were obtained from the American Type Culture collection (ATCC, Manassas, VA, USA). The tumor cell lines were maintained at the National Cancer Institute, Cairo, Egypt, by serial sub culturing. Cells were seeded in 96-well microliter plates at initial concentration of (3 × 10^3 cell/well) in a fresh medium and left for 24 h to attach to the plates before treatment of the tested compounds. Tested compounds were dissolved in DMSO and diluted with saline to the appropriate volume. After 24 h, cells were incubated with the appropriate concentration ranges of drugs (0, 12.5, 25, 50, 100 µg/mL), the wells were diluted to 150 µL with fresh medium and incubation was continued for 48 h at 37 °C. Control cells were treated with vehicle alone. Three wells were used for each drug concentration. After 48 h incubation, the cells were fixed with 50 µL of cold 10% trichloroacetic acid for 1 h at 4 °C, washed 5 times with distilled water using (Automatic Washer Tecan, Heidelberg, Germany) and then stained for 30 min at room temperature with 50 µL 0.4% SRB dissolved in 1% acetic acid. The wells were then washed 4 times with 1% acetic acid. The plates were air dried and the dye was solubilized with 100 µL/well 10 mM tris base (pH = 10.5). The Optical density (O.D.) of each well was measured spectrophotometrically at 570 nm with an ELISA microplate reader (sunrise Tecan reader, Germany). The percentage of cell survival was calculated as follows:(1) Surviving fraction=O.D.(treated cells)/O.D.(control cells)
(§2) The relation between surviving fraction and compound concentration was plotted to get the survival curve for tumor cell line after the specified time.

[2] = test system: breast cancer cell line (MCF-7); assay: SRB cytotoxicity assay, breast cancer cell line; type: cell-based; settings: Homo sapiens, MCF7, 48 h incubation, triplicate, ±SD
Description: as §1, §2

[3] = test system: liver cancer cell line (HepG2); assay: SRB cytotoxicity assay, liver cancer cell line; type: cell-based; settings: Homo sapiens, 48 h incubation, triplicate, ±SD
Description: as §1, §2

[4] = test system: GSH and MDA levels in tumor tissues; assay: ELISA of GSH and MDA levels in tumor homogenates; type: in vivo, female Swiss albino mice; settings: extract 200 mg/kg or jaceidin 50 mg/kg three times weekly
Description: (§3) Groups 1: mice treated with saline (5 mL/kg). All therapies continued for 21 days. Group 2: mice treated with C. montanus extract 200 mg/kg three times weekly. Group 3: mice treated with Jaceidin 50 mg/kg three times weekly.
(§4) One day after the end of the experiment (day 21), mice were subjected to light ether anesthesia and sacrificed by cervical dislocation; blood samples were collected by cardiac puncture. Blood samples were maintained at room temperature for 30 min and centrifuged at 12,000× g for 10 min. Then, sera were separated and stored at −20 °C until used. An ELISA kit (Sun Red Biotechnology Company, Shanghai, China) was employed for estimating serum VEGF level according to the manufacturer’s protocol. The color intensity was measured at 450 nm using an automated ELISA reader (Europe S.A., Belgium). Tumor was dissected into two halves; the first half was kept at −20 °C to be used in estimating MDA and GSH levels. The second half was cut into small pieces, then fixed in 10% phosphate-buffered formalin for histopathological examination.
Using a frozen sample, a part of tumor was weighted and homogenized as 10% (w/v) in phosphate-buffered saline using a Teflon homogenizer (Glass col homogenizer system, Vernon Hills, IL, USA). Homogenates were then centrifuged at 15,000× g for 10 min at 4 °C. After centrifugation, the supernatants were collected into 2 dry tubes and kept at −80 °C. The levels of MDA and GSH were determined in the tumor homogenates of […] using ELISA kits for MDA (Catalog No. MBS741034) and GSH (Catalogue Number: MBS026635) according to the manufacturer’s instructions.

[5] = test system: vascular endothelial growth factor B (VEGF-B); assay: ELISA of serum VEGF level in EAC-bearing mice; type: in vivo, female Swiss albino mice; settings: extract 200 mg/kg or jaceidin 50 mg/kg three times weekly
Description: as §3, §4

[6] = test system: Ehrlich's ascites carcinoma (EAC) solid tumors; assay: In vivo antitumor activity: tumor weight and histopathology of EAC solid tumors; parameters: species or system female Swiss albino mice; settings: extract 200 mg/kg or jaceidin 50 mg/kg three times weekly
Source text: Female Swiss albino mice with original body weight of 20–26 g and age of 8–10 weeks was used in the current experiment and fixed housing conditions were maintained at a normal dark/light cycle. Mice were housed in groups of six in polyethylene cages where food and water were provided ad libitum. The Research Ethics Committee at the Faculty of Pharmacy, Suez Canal University (license number 201809RA1), approved the study of protocol. Ehrlich’s Ascites Carcinoma is commonly employed as a solid form and easy to grow in suspension, when injected in the peritoneal cavity of female mice. Mice carrying the EAC cell line were obtained from the Department of Tumor Biology at the National Cancer Institute (Cairo, Egypt). The viability of EAC cells was ensured employing Trypan blue dye exclusion method. Then, EAC cells suspension was prepared in sterile saline solution to get a final working suspension; each 0.1 mL of which contained 2.5 million of EAC cells. At the beginning of the experiment, mice were shaved at their back, and inoculated with 0.1 mL of the EAC suspension.
Seven days after inoculation with the tumor cells in all female mice, mice were randomly divided into three groups, ten mice in each. The different treatments were started as follows;
as §3, §4
After fixation, samples were dehydrated in ascending grades of ethyl alcohol, cleared in xylol, embedded in paraffin wax, and then subjected to routine histopathological procedures. Sectioning was done at 5–7 µm thick followed by staining with Hematoxylin and Eosin (H&E). Digital imaging of representative areas was captured using image capture engine software (AMT V600.259) which attached to Olympus CX 41biocular microscope. Histopathological analysis of the digital images of solid tumor was performed by quantities the mitotic figures and tumor giant cells. For counting, ten sections from each experimental group were analyzed at scale bar 20 µm by using image J software that was developed by the National Institute of Health (Betheda, MD, USA). Histopathological examinations were evaluated blindly.

[7] = EAC solid tumors in female mice, 21 days

Row | Structure (SMILES) | IC50 [1] [µM] | IC50 [2] [µM] | IC50 [3] [µM] | other results
1 | C=C(C)[C@@H]1CC[C@]2(C)CCC[C@](C)(O)[C@H]2C1 [Compound 1, Intermedeol] | > 200 | 45.6 ± 0.5 | 48.2 ± 0.3 | –
2 | C=C1CCC[C@]2(C)CCC(C(C)(C)O)C[C@@]12OO (stereo partly drawn) [Compound 2, 5α-hydroperoxy-β-eudesmol] | > 200 | 41.5 ± 0.55 | 39.7 ± 0.65 | –
3 | COc1ccc(-c2oc3cc(O)cc(O)c3c(=O)c2OC)cc1OC [Compound 3, 5,7-dihydroxy-3,3’,4’-trimethoxyflavone] | > 200 | 10.7 ± 0.4 | 30.5 ± 0.61 | –
4 | COc1cc(-c2oc3cc(O)c(OC)c(O)c3c(=O)c2OC)ccc1O [Compound 4, 5,7,4’-trihydroxy-3,6,3’-trimethoxyflavone] | > 200 | 9.3 ± 0.3 | 9.7 ± 0.26 | GSH levels in tumor tissues ([4]; mean ± SD, tumor control 11.62 ± 1.96): 29.25 ± 3.36; MDA levels in the tumor tissues ([4]; mean ± SD, tumor control 15.18 ± 1.89): 4.25 ± 1.28; GSH increase compared to tumor control ([4]; tumor tissues): 2.5 folds; MDA decrease compared to tumor control ([4]; tumor tissues): 72%; serum VEGF decrease compared to tumor control [5]: 61.7%; serum VEGF levels ([5]; mean ± SD, tumor control 71.46 ± 1.88): 27.3 ± 2.82; mean tumor weight [6, 7]: 0.032 g; tumor weight decrease compared to tumor control [6, 7]: 96.4%; necrosis in the tumor tissues ([6]; H&E histopathology, mean ± SD, tumor control 3.46 ± 0.68): 1.63 ± 0.68; number of tumor giant cells in the tumor tissues ([6]; H&E histopathology, mean ± SD, tumor control 7.65 ± 2.48): 1.30 ± 1.08; number of mitotic figures in the tumor tissues ([6]; H&E histopathology, mean ± SD, tumor control 31.45 ± 5.46): 5.20 ± 2.35; mitotic figure decrease compared to tumor control ([6]; H&E histopathology): 83.47%; necrosis decrease compared to tumor control ([6]; H&E histopathology): 53.01%; tumor giant cell decrease compared to tumor control ([6]; H&E histopathology): 83%
5 | C=C(C)[C@]1(O)CC[C@]2(C)[C@H](O)CC[C@](C)(O)[C@@H]2C1 [Compound 5, Eudesm-11,13-ene-1β,4β,7α-triol] | > 200 | 38.5 ± 0.55 | 33.4 ± 0.49 | –
6 | CC(C)(O)[C@@]1(O)CC[C@]2(C)C(C1)[C@@](C)(O)CC[C@H]2O (stereo partly drawn) [Compound 6, 1β,4β,7β, 11-tetrahydroxyeudesmane] | > 200 | 33.2 ± 0.35 | 35.1 ± 0.6 | –
7 | COc1cccc2c1C(=O)c1c(O)c3c(c(O)c1C2=O)C[C@@](O)(C(=O)CO)C[C@@H]3O[C@H]1C[C@H](N)[C@H](O)[C@H](C)O1 [Doxorubicin, reference compound] | 14.7 ± 0.5 | 4 ± 0.25 | 4.58 ± 0.47 | –
